According to patent US11718628B2, “SREBP inhibitors comprising a 6-membered central ring” (Capulus Therapeutics, LLC, priority 2018, dated 2023):
Converted amounts (≈) assume the structure as drawn. Values belong to the molecule of their own block, whether it stands above or below them.

Key:
SREBP = test: Reporter screening assay (SRE-luciferase reporter construct); assay type: cell-based; settings: Homo sapiens; SREBPv1 reporter cell line HepG2, 24 hours, 0.01 uM to 10 uM; read-out: Reporter Screening IC50 (nM) Activity Range
Experimental: This assay was used to evaluate the effect on transcriptional activity SREBP of the compounds synthesized according to Examples 1-16, 20, and 22, using an SRE-luciferase reporter construct. On day 1, 10,000 cells were seeded in a 96 well (white) plate as per the plate map in Growth media without antibiotics. Cells were incubated at 37° C. for 8 hours. After 8 hours, cells were washed with DPBS for complete removal of FBS. DPBS was completely removed and Growth media was replaced with phenol free treatment medium (90 μl) with different FBS concentrations. The cells were then incubated at 37° C. for 24 hours with varying doses (0.01 uM to 10 uM) of compounds. Then a Luciferase assay was performed.
Reagents for performing Luciferase assay were stored at −20° C. To a tube of lyophilized assay substrate was added 1 mL Substrate Solvent and mixed well. The Substrate tube after reconstitution was covered with aluminum foil so as to keep it protected from light. The assay buffer was thawed to room temperature. To 20 mL Assay Buffer was added 200 μL of reconstituted 100× Substrate and mixed well. The reconstituted substrate as well as the assay solution (buffer+substrate) was protected from light throughout the procedure by keeping it covered with aluminum foil.
Using a multi-channel pipette, 100 μL Assay Solution (buffer+substrate) was added directly to each sample well in Plate 1, which was incubated for 30 min (plate was covered with aluminum foil). After 30 min incubation, the plate was read for total luminescence. Each well was read for 2 seconds in a plate luminometer. (Microplate reader Envision Microplate reader from Perkin Elmer). Precaution was taken to incubate plate exactly for 30 min prior to reading on the plate reader.
Materials: SREBPv1 Reporter cell line: HepG2—#32251. Growth Medium: MEM (Corning 10-010), 10% FBS, 1% GlutaMax (Invitrogen Catalog #35050061), […] (Invitrogen Catalog #A1113803) and 1% Penicillin-Streptomycin (Pen-Strep). Treatment Media: Phenol-free MEM (Invitrogen Catalog #51200-038) and 1% GlutaMax (Invitrogen Catalog #35050061). Luciferase Assay: LightSwitch Luciferase Assay Kit (Catalog #32032). LDH assay: Pierce LDH Cytotoxicity Assay Kit (Catalog #SD249616).

[1] = Half-life in human liver microsomes; assay type: in vitro ADME; settings: NADPH, 37° C.
Outline: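 Compound at 100 μM working concentration (diluted stock) pre-incubated 10 min at 37° C with human liver microsomes (3.33 mg/mL stock) in 100 mM potassium phosphate, then 60 min at 37° C with NADPH; no-cofactor and 0 min controls. Remaining compound quantified by LC-MS/MS after acetonitrile quench.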

[2] = Half-life in mouse liver microsomes; assay type: in vitro ADME
Outline: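 Compound (diluted from a 100 μM working solution) was preincubated 10 min at 37 °C with liver microsomes in 100 mM potassium phosphate, then incubated 60 min at 37 °C with NADPH, alongside a no-cofactor control and a 0 min sample. Samples were quenched in acetonitrile with internal standard and analysed by LC-MS/MS. This procedure was carried out with mouse microsomes.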

Kinetic solubility = assay type: physicochemical; settings: pH 7.4 buffer, room temperature, 1.0% DMSO
Outline: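 Compound at 100 μM nominal (1.0% DMSO) shaken in pH 7.4 buffer for 24 h at room temperature. After centrifugation, concentration quantified by LC-UV against a calibration curve. Banded as Low (<10 μg/mL), Medium (10–60 μg/mL) or High (>60 μg/mL).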

[3] = In vivo pharmacokinetic properties in rats (IV and PO); set-up: species or system male Sprague Dawley rats
Experimental: (§1) The in vivo pharmacokinetic properties of compounds by both intravenous and oral administration were evaluated in male Sprague Dawley rats or C57BL/6J mice.
(§2) Animals were housed in cages with clean bedding. Certified rodent diet was provided. Water was available ad libitum. Environmental controls for the animal room were set to maintain a temperature of 22° C. to 25° C., humidity of 40-70% RH, and a 12-hour light/12-hour dark cycle. Normal healthy animals certified by the attending veterinarian were selected and acclimatized for minimum three days prior to initiation of study.
Surgical Procedure for Jugular Vein Cannulation of Rats: Rats were anaesthetized with a single dose of ketamine 50 mg/kg i.p.+xylazine 6 mg/kg i.p. The right jugular vein was exposed, a loose ligature was placed caudally, and the cranial end of vein was ligated. A small incision was made between the ligatures into which the catheter (polyethylene 50 tubing of internal diameter 0.58 mm and outer diameter 0.96 mm) was inserted. The catheter was secured in place by tying the loose ligature around the catheterized vessel. A small incision was made in the scapular region to serve as the exit site of the catheter. The catheter was subcutaneously tunneled and exteriorized through scapular incision. A stay suture was placed in the scapular area. Patency was tested, and catheter was filled with a locking solution (heparinized saline) and sealed with a stainless steel plug. The incision was then sutured with sterile suturing material. Anti-septic solution was applied to the sutured site and animal was placed back in the home cage.
(§3) To evaluate pharmacokinetic properties of intravenous delivery, male Sprague Dawley rats were administered 2.00 mg compound/kg animal weight through the tail vein. The concentration of the compound in the plasma of the animals was evaluated at 0.083, 0.25, 0.5, 1, 2, 4, 8, 12 and 24 hr by taking blood samples from the cannulated jugular vein. For the C5Bl/6J mice, blood samples were collected through a capillary, guided in retro-orbital plexus.
To evaluate pharmacokinetic properties of oral delivery, rats (male Sprague Dawley rats) or mice (C5Bl/6J) were administered 10 mg compound/kg animal weight by mouth. The concentration of compound in the plasma of the animals was evaluated at 0.25, 0.5, 1, 2, 4, 6, 8, 12 and 24 hr by taking blood samples from the cannulated jugular vein (rats) or through a capillary, guided in retro-orbital plexus (mice).

[4] = In vivo pharmacokinetic properties in mice (IV and PO); set-up: species or system C57BL/6J mice; settings: mice
Experimental: as §1, §2, §3
[…] The concentration of compound in the plasma of the animals was evaluated at 0.25, 0.5, 1, 2, 4, 6, 8, 12 and 24 hr by taking blood samples from the cannulated jugular vein (rats) or through a capillary, guided in retro-orbital plexus (mice).

Molecule: CC(C)(C)c1cc(-c2cccc(-c3ccc(C(=O)N4CCC(O)CC4)cc3Cl)c2)ccn1 [Compound 5, (3′-(2-(tert-butyl)pyridin-4-yl)-2-chloro-[1,1′-biphenyl]-4-yl)(4-hydroxypiperidin-1-yl)methanone]
IC50 (SREBP): ≤ 100 nM

Molecule: CC(C)(C)c1cc(-c2cc(-c3ccc(C(=O)N4CCC(O)CC4)cc3Cl)ncn2)ccn1 [Compound 8, (4-(6-(2-(tert-butyl)pyridin-4-yl)pyrimidin-4-yl)-3-chlorophenyl)(4-hydroxypiperidin-1-yl)methanone]
IC50 (SREBP): ≤ 1000 nM

Molecule: CC(C)(C)c1cc(-c2cncc(-c3ccc(C(=O)N4CCC(O)CC4)cc3Cl)n2)ccn1 [Compound 9, (4-(6-(2-(tert-butyl)pyridin-4-yl)pyrazin-2-yl)-3-chlorophenyl)(4-hydroxypiperidin-1-yl)methanone]
IC50 (SREBP): ≤ 1000 nM

Molecule: COc1ncc(-c2ccnc(C(C)(C)C)c2)cc1-c1ccc(C(=O)N2CCC(O)CC2)cc1Cl [Compound 10, (4-(2′-(tert-butyl)-6-methoxy-[3,4′-bipyridin]-5-yl)-3-chlorophenyl)(4-hydroxypiperidin-1-yl)methanone]
IC50 (SREBP): ≤ 3000 nM

Molecule: CC(C)NC(=O)Nc1ccc(-c2cncc(-c3ccnc(C(C)(C)C)c3)c2)c(Cl)c1 [Compound 11, 1-(4-(2′-(tert-butyl)-[3,4′-bipyridin]-5-yl)-3-chlorophenyl)-3-isopropylurea]
IC50 (SREBP): ≤ 1000 nM

Molecule: O=C(c1ccc(-c2cncc(-c3ccnc(C4OCCO4)c3)c2)c(Cl)c1)N1CCC(O)CC1 [Compound 12, (4-(2′-(1,3-dioxolan-2-yl)-[3,4′-bipyridin]-5-yl)-3-chlorophenyl)(4-hydroxypiperidin-1-yl)methanone]
IC50 (SREBP): ≤ 1000 nM

Molecule: CC(C)OC(=O)Nc1ccc(-c2cncc(-c3ccnc(C(C)(C)C)c3)c2)c(Cl)c1 [Compound 16, isopropyl (4-(2′-(tert-butyl)-[3,4′-bipyridin]-5-yl)-3-chlorophenyl)carbamate]
IC50 (SREBP): ≤ 500 nM

Molecule: CC(C)(C)c1cc(-c2cncc(-c3ccc(C(=O)N4CCC(O)C(O)C4)cc3Cl)c2)ccn1 (stereo not shown) [drawing 419]
half-life at 1 µM ([1]; human, liver microsomes, read-out: G: half-life human liver microsomes): 0.363 h | half-life at 1 µM ([2]; mouse, liver microsomes, read-out: H: half-life of mouse liver microsomes): 1.11 h | solubility kinetic at 24 h (Kinetic solubility; aqueous buffer, kinetic from dmso stock, read-out: I: kinetic solubility class): 10 to 60 µg/mL (≈ 21.5 to 129 µM)

Molecule: CC(C)(C)c1cc(-c2cncc(-c3ccc(C(=O)N4CCC(O)C(O)C4)cc3Cl)c2)ccn1 (stereo not shown) [drawing 423]
G: half-life human liver microsomes [1]: 0.357 h | H: half-life of mouse liver microsomes [2]: 0.942 h | I: kinetic solubility class (Kinetic solubility; 24 h): MEDIUM (10 to 60 μg/mL=Medium)

Molecule: N-(4-(2′-(tert-butyl)-[3,4′-bipyridin]-5-yl)-3-chlorophenyl)-isopropylsulfamoyl urea [Compound Z-812]
Intravenous Delivery (IV) CL ([3]; IV, 2 mg/kg): 53.5 mL/min/kg | Intravenous Delivery (IV) T1/2 ([3]; IV, 2 mg/kg): 1.87 h | Intravenous Delivery (IV) Vd ([3]; IV, 2 mg/kg): 8.65 L/kg | % F (Bioavailability of oral delivery) ([3]; PO 10 mg/kg vs IV 2 mg/kg): 0.65% | Oral Administration (PO) AUC0-last ([3]; PO, 10 mg/kg): 18 ng·h/mL | Oral Administration (PO) T1/2 ([3]; PO, 10 mg/kg): 1.35 h | Oral Administration (PO) Tmax ([3]; PO, 10 mg/kg): 0.33 h | Intravenous Delivery (IV) AUC0-last ([4]; IV, 2 mg/kg): 1150 ng·h/mL | Intravenous Delivery (IV) CL ([4]; IV, 2 mg/kg): 28.6 mL/min/kg | Intravenous Delivery (IV) T1/2 ([4]; IV, 2 mg/kg): 1.12 h | Intravenous Delivery (IV) Vd ([4]; IV, 2 mg/kg): 2.78 L/kg | % F (Bioavailability of oral delivery) ([4]; PO 10 mg/kg vs IV 2 mg/kg): 52% | Oral Administration (PO) AUC0-last ([4]; PO, 10 mg/kg): 3000 ng·h/mL | Oral Administration (PO) T1/2 ([4]; PO, 10 mg/kg): 4.21 h | Oral Administration (PO) Tmax ([4]; PO, 10 mg/kg): 0.25 h

Results, then the molecule that gave them:

IC50 (SREBP): ≤ 1000 nM
Molecule: CC(C)(C)c1cc(-c2cc(-c3ccc(C(=O)N4CCC(O)CC4)cc3Cl)ccn2)ccn1 [Compound 1, (4-(2′-(tert-butyl)-[2,4′-bipyridin]-4-yl)-3-chlorophenyl)(4-hydroxypiperidin-1-yl)methanone]

IC50 (SREBP): ≤ 500 nM
Molecule: CC(C)(C)c1cc(-c2ccnc(-c3ccc(C(=O)N4CCC(O)CC4)cc3Cl)c2)ccn1 [Compound 2, (4-(2′-(tert-butyl)-[4,4′-bipyridin]-2-yl)-3-chlorophenyl)(4-hydroxypiperidin-1-yl)methanone]

IC50 (SREBP): ≤ 1000 nM
Molecule: CC(C)(C)c1cc(-c2cccc(-c3ccc(C(=O)N4CCC(O)CC4)cc3Cl)n2)ccn1 [Compound 3, (4-(2′-(tert-butyl)-[2,4′-bipyridin]-6-yl)-3-chlorophenyl)(4-hydroxypiperidin-1-yl)methanone]

IC50 (SREBP): ≤ 100 nM
Molecule: CC(C)(C)c1cc(-c2cncc(-c3ccc(C(=O)N4CCC(O)CC4)cc3Cl)c2)ccn1 [Compound 4, (4-(2′-(tert-butyl)-[3,4′-bipyridin]-5-yl)-3-chlorophenyl)(4-hydroxypiperidin-1-yl)methanone]

IC50 (SREBP): ≤ 1000 nM
Molecule: CC(C)(C)c1cc(-c2ccnc(-c3ccc(C(=O)N4CCC(O)CC4)cc3Cl)n2)ccn1 [Compound 6, (4-(4-(2-(tert-butyl)pyridin-4-yl)pyrimidin-2-yl)-3-chlorophenyl)(4-hydroxypiperidin-1-yl)methanone]

IC50 (SREBP): ≤ 1000 nM
Molecule: CC(C)(C)c1cc(-c2nccc(-c3ccc(C(=O)N4CCC(O)CC4)cc3Cl)n2)ccn1 [Compound 7, (4-(2-(2-(tert-butyl)pyridin-4-yl)pyrimidin-4-yl)-3-chlorophenyl)(4-hydroxypiperidin-1-yl)methanone]

IC50 (SREBP): ≤ 500 nM
Molecule: CC(C)(C)OC(=O)NC1CCCN(C(=O)c2ccc(-c3cncc(-c4ccnc(C(C)(C)C)c4)c3)c(Cl)c2)C1 (stereo not shown) [Compound 13, tert-butyl (1-(4-(2′-(tert-butyl)-[3,4′-bipyridin]-5-yl)-3-chlorobenzoyl)piperidin-3-yl)carbamate]

IC50 (SREBP): ≤ 100 nM
Molecule: CC(C)(C)c1cc(-c2cncc(-c3ccc(C(=O)N4CCCC(O)C4)cc3Cl)c2)ccn1 (stereo not shown) [Compound 14, (4-(2′-(tert-butyl)-[3,4′-bipyridin]-5-yl)-3-chlorophenyl)(3-hydroxypiperidin-1-yl)methanone]

IC50 (SREBP): ≤ 100 nM
Molecule: COC1CCCN(C(=O)c2ccc(-c3cncc(-c4ccnc(C(C)(C)C)c4)c3)c(Cl)c2)C1 (stereo not shown) [Compound 15, (4-(2′-(tert-butyl)-[3,4′-bipyridin]-5-yl)-3-chlorophenyl)(3-methoxypiperidin-1-yl)methanone]
